Laboratory results taken from US10759799B2, “Indazole containing macrocycles and therapeutic uses thereof” (Samumed, LLC, priority 2018, dated 2020).

Assays:
[1] = test system: Wnt activity (Sp5-Luc reporter, SW480 colon carcinoma cells); experiment: Sp5-Luc reporter gene screening assay for Wnt activity in SW480 cells; format: cell-based; settings: Homo sapiens; for EC50: Sp5-Luc reporter, SW480 cells, 36 to 48 hours
Source text: The screening assay for Wnt activity is described as follows. Reporter cell lines can be generated by stably transducing cancer cell lines (e.g., colon cancer) or primary cells (e.g., IEC-6 intestinal cells) with a lentiviral construct that includes a Wnt-responsive promoter driving expression of the firefly luciferase gene.
SW480 colon carcinoma cells were transduced with a lentiviral vector expressing luciferase with a human Sp5 promoter consisting of a sequence of eight TCF/LEF binding sites. SW480 cells stably expressing the Sp5-Luc reporter gene and a hygromycin resistance gene were selected by treatment with 150 μg/mL of hygromycin for 7 days. These stably transduced SW480 cells were expanded in cell culture and used for all further screening activities. […] For Sp5-Luc reporter gene assays, the cells were plated at 4,000 cells/well in 384-well plates with a DMEM medium containing 1% fetal bovine serum, and 1% Penicillin-Streptomycin and incubated for 36 to 48 hours at 37° C. and 5% CO2. Following incubation, 15 μl of BriteLite Plus luminescence reagent (Perkin Elmer) was added to each well of the 384-well assay plates. The plates were placed on an orbital shaker for 2 min and then luminescence was quantified using the Envision (Perkin Elmer) plate reader. Readings were normalized to DMSO only treated cells, and normalized activities were utilized for EC50 calculations using the dose-response log (inhibitor) vs. response-variable slope (four parameters) nonlinear regression feature available in GraphPad Prism 5.0 (or Dotmatics).

recombinant GSK3β kinase = recombinant GSK3β kinase (Homo sapiens (Human), UniProt P49841); experiment: GSK3β kinase assay (Ser/Thr 09 peptide Z-lyte, FRET); format: biochemical; settings: 46 μM ATP, one hour at room temperature, read-out: EC50 (μM) (IC50 per method)
recombinant GSK3β kinase, sequence (P49841 whole entry): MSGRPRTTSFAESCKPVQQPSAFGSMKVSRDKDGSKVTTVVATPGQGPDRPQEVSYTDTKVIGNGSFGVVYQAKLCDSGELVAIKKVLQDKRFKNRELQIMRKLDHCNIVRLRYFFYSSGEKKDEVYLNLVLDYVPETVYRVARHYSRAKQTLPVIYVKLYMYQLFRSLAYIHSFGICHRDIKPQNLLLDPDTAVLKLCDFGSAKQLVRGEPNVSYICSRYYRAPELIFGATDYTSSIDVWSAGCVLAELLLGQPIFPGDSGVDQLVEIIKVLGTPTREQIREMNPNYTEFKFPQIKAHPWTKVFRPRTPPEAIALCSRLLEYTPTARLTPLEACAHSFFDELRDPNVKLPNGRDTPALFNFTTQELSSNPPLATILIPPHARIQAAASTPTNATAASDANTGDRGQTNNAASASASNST
Source text: Representative compounds were screened using the assay procedure for GSK3β kinase activity as described below.
The GSK3β kinase assay is run using the Ser/Thr 09 peptide Z-lyte assay kit according to manufacturer's instructions (Life Technologies—a Division of Thermo-Fisher). This is a non-radioactive assay using fluorescence resonance energy transfer (FRET) between coumarin and fluorescein to detect kinase activity which is represented as ratio of coumarin emission/fluorescein emission.
Briefly, recombinant GSK3β kinase, ATP and Ser/Thr peptide 09 are prepared in 1× Kinase buffer to final concentrations of 0.04 μg/mL, 46 μM, and 4 μM respectively. The mixture is allowed to incubate with the representative compounds for one hour at room temperature. All reactions were performed in duplicate. Unphosphorylated (“0% Control”) and phosphorylated (“100% control”) forms of […] serve as control reactions.
After incubation, diluted Development Buffer is added to the reaction and allowed to further incubate for one hour at room temperature. The plate is read at Ex 400 Em 455 to detect the coumarin signal and Ex 400 Em 520 to measure the signal (EnVision Multilabel Plate Reader, PerkinElmer).
The Emission ratio (Em) is calculated as a ratio of the coumarin (C) emission signal (at 445 nm)/Fluorescein (F) emission signal (at 520 nm). The percent phosphorylation is then calculated using the following formula: [1−((Em ratio×F100%)−C100%)/((C0%−C100%)+(Em ratio×(F100%−F0%)))].
Dose-response curves are generated and inhibitory concentration (IC50) values are calculated using non-linear regression curve fit in the Dotmatics' Studies Software (Bishops Stortford, UK).

[2] = test system: SW480 colon carcinoma cells; experiment: Cell viability assay (CellTiter-Glo) in SW480 cells; format: cell-based; settings: Homo sapiens; for EC50: 96 h, SW480 cell viability, four days, CellTiter-Glo; for inhibition at 10 µM: SW480, read-out: percent inhibition at 10 μM
Protocol: Representative compounds were screened using the assay procedure to assess the effect on cell viability as described below.
SW480 colon carcinoma cells were transduced with a lentiviral vector expressing luciferase with a human Sp5 promoter consisting of a sequence of eight TCF/LEF binding sites. SW480 cells stably expressing the Sp5-Luc reporter gene and a hygromycin resistance gene were selected by treatment with 150 μg/mL of hygromycin for 7 days. These stably transduced SW480 cells were expanded in cell culture and used for all further screening activities.
For the Cell Viability Assays, the cells were plated at 2,000 cells/well in 384-well plates with a DMEM medium containing 1% fetal bovine serum, and 1% Penicillin-Streptomycin and incubated for […] at 37° C. and 5% CO2. Eight replicates of DMSO-treated cells served as controls and cells treated with compound were performed in duplicate.
After incubation, 10 μL of CellTiter-Glo (Promega) was added to each well allowed to incubate for approximately 12 minutes. This reagent “results in cell lysis and generation of a luminescent signal proportional to the amount of ATP present. The amount of ATP is directly proportional to the number of cells present in culture, in agreement with previous reports. The CellTiter-Glo Assay generates a “glow-type” luminescent signal, produced by the luciferase reaction (Promega.com)”.

[3] = test system: primary human mesenchymal stem cells (hMSCs); experiment: Chondrogenesis induction in hMSCs (Rhodamine B staining intensity, EC50); format: cell-based; settings: 6 days, Rhodamine B staining intensity of nodules
Source text: Representative compounds were screened using primary human mesenchymal stem cells (hMSCs) to determine their ability to induce chondrogenesis (process by which cartilage is developed).
Primary human mesenchymal stem cells (hMSCs) were purchased from Lonza (Walkersville, Md.) and expanded in Mesenchymal Stem Cell Growth Media (Lonza). Cells between passage 2 and 4 were used for the experiments.
To image chondrogenic nodules, the cells were fixed using 4% formaldehyde (Electron Microscopy Sciences), and stained with 2 μg/mL Rhodamine B (Sigma-Aldrich) and 20 μM Nile Red (Sigma-Aldrich) [Johnson K., et. al, A Stem Cell-Based Approach to Cartilage Repair, Science, (2012), 336(6082). […] Rhodamine B staining intensity of nodules in each well was normalized to the average of 3 DMSO treated wells on the same plate using Excel (Microsoft Inc.). The normalized averages (fold change over DMSO) of 3 replicate wells for each compound concentration were calculated. EC50 values were calculated using non-linear regression curve fitting in Prism 8 (Graphpad Inc.). Due to solubility limitations of some of the compounds, curve fitting was incomplete, and the highest observed activity was extrapolated to the insoluble doses for accurate EC50 determinations.
EC50 values are reported. Further, using TGF-β3 as a positive control, the concentration of representative compounds required to induce equivalent levels of chondrogenesis is reported. In addition, the maximum activity of each compound and the respective dose that each compound reached maximum chondrogenesis activity is reported.

Structure (SMILES) | EC50 [1] | IC50 (recombinant GSK3β kinase) | EC50 [2] | EC50 [3] | inhibition at 10 µM [2] | inhibition at 10 µM ([1]; SW480, read-out: percent inhibition at 10 μM)
O=C1CCc2cccc(c2)-c2nccc3[nH]c(nc23)-c2n[nH]c3ccc(cc23)-c2cncc(c2)N1 [Compound 2, (Z)-2^1H,3^1H-5-Aza-2(4,2)-imidazo[4,5-c]pyridina-3 (3,5)-indazola-4(3,5)-pyridina-1(1,3)-benzenacyclooctaphan-6-one] | 0.022 µM | 0.001 µM | 0.08 µM | 0.058 µM | – | –
O=C1CCc2cccc(c2)-c2cccc3[nH]c(nc23)-c2n[nH]c3cnc(cc23)-c2cncc(c2)N1 [Compound 6, (Z)-2^1H,3^1H-8-Aza-2(5,3)-pyrazolo[3,4-c]pyridina-3(2,4)-benzo[d]imidazola-1(3,5)-pyridina-4(1,3)-benzenacyclooctaphan-7-one] | 0.009 µM | 0.004 µM | 0.142 µM | 0.016 µM | – | –
CN1Cc2cncc(c2)-c2ccc3[nH]nc(c3c2)-c2nc3c(cccc3[nH]2)-c2cccc(c2)C1 [Compound 22, (Z)-6-Methyl-2^1H,3^1H-6-aza-2(5,3),3(2,4)-diindazola-1(3,5)-pyridina-4(1,3)-benzenacycloheptaphane] | 0.01 µM | 0.011 µM | 0.014 µM | 0.796 µM | – | –
c1cc2cc(c1)-c1cccc3[nH]c(nc13)-c1n[nH]c3ccc(cc13)-c1cncc(c1)CNC2 [Compound 10, (Z)-2^1H,3^1H-6-Aza-2(5,3),3(2,4)-diindazola-1(3,5)-pyridina-4(1,3)-benzenacycloheptaphane] | 0.011 µM | 0.004 µM | 0.026 µM | 0.01 µM | – | –
CN1Cc2cccc(c2)-c2cccc3[nH]c(nc23)-c2n[nH]c3ccc(cc23)-c2cnn(C)c2C1 [Compound 29] | 0.082 µM | 0.015 µM | 0.17 µM | 0.069 µM | – | –
O=C1CCc2cccc(c2)-c2cccc3[nH]c(nc23)-c2n[nH]c3ccc(nc23)-c2cncc(c2)N1 [Compound 7, (Z)-2^1H,3^1H-8-Aza-2(5,3)-pyrazolo[4,3-b]pyridina-3 (2,4)-benzo[d]imidazola-1(3,5)-pyridina-4(1,3)-benzenacyclooctaphan-7-one] | 0.437 µM | > 10 µM | 0.455 µM | 0.022 µM | – | –
O=C1CCc2cccc(c2)-c2cncc(c2)NC(=O)c2n[nH]c3ccc(cc23)-c2cncc(c2)CN1 [Compound 97, 2^1H-4,10-diaza-2(5,3)-indazola-1,5(3,5)-dipyridina-6(1,3)-benzenacycloundecaphane-3,9-dione] | > 10 µM | 0.01 µM | > 10 µM | 0.069 µM | 25% | 22.2%
c1cc2cc(c1)-c1cccc3[nH]c(nc13)-c1n[nH]c3ccc(cc13)-c1cncc(c1)OCCC2 [Compound 57] | 0.475 µM | 1.87 µM | 0.67 µM | 0.025 µM | – | –
O=C1CCc2cccc(c2)-c2cccc3[nH]c(nc23)-c2n[nH]c3ncc(cc23)-c2cncc(c2)N1 [Compound 5, (Z)-2^1H,3^1H-8-Aza-2(5,3)-pyrazolo[3,4-b]pyridina-3(2,4)-benzo[d]imidazola-1(3,5)-pyridina-4(1,3)-benzenacyclooctaphan-7-one] | 0.124 µM | 0.048 µM | 0.407 µM | 0.213 µM | – | –
CN1CCCCN(C)c2nccc3[nH]c(nc23)-c2n[nH]c3ccc(cc23)-c2cncc(c2)C1 [Compound 51, (Z)-5,10-Dimethyl-1H,2^1H-5,10-diaza-1(2,4)-imidazo[4,5-c]pyridina-2(3,5)-indazola-3(3,5)-pyridinacyclodecaphane] | 0.577 µM | 0.002 µM | 0.515 µM | 0.093 µM | – | –
O=C1CCc2cccc(c2)-c2cncc3[nH]c(nc23)-c2n[nH]c3ccc(cc23)-c2cncc(c2)N1 [Compound 3, (Z)-2^3H,3^1H-5-Aza-2(7,2)-imidazo[4,5-c]pyridina-3 (3,5)-indazola-4(3,5)-pyridina-1(1,3)-benzenacyclooctaphan-6-one] | 0.052 µM | 0.001 µM | 2.75 µM | 0.028 µM | – | –

Further lines, with some results ahead:

EC50 [1] | IC50 (recombinant GSK3β kinase) | EC50 [2] | EC50 [3] | Structure (SMILES) | inhibition at 10 µM [2] | inhibition at 10 µM ([1]; SW480, read-out: percent inhibition at 10 μM)
0.022 µM | 0.007 µM | 0.094 µM | 0.012 µM | O=C1CCc2cccc(c2)-c2cccc3[nH]c(nc23)-c2n[nH]c3ccc(cc23)-c2cncc(c2)N1 [Compound 1] | – | –
0.042 µM | 0.001 µM | 0.049 µM | 0.206 µM | c1cc2cc(c1)-c1cncc3[nH]c(nc13)-c1n[nH]c3ccc(cc13)-c1cncc(c1)CNC2 [Compound 8, (Z)-2^3H,3H-6-Aza-2(7,2)-imidazo[4,5-c]pyridina-3(3,5)-indazola-4(3,5)-pyridina-1(1,3)-benzenacycloheptaphane] | – | –
0.338 µM | 0.001 µM | > 10 µM | 0.022 µM | CN1CCCn2cc(nn2)-c2cncc3[nH]c(nc23)-c2n[nH]c3ccc(cc23)-c2cncc(c2)C1 [Compound 45, (1^4Z,2^1Z)-6-Methyl-1 ^1H,2^3H,3^1H-6-aza-2(7,2)-imidazo[4,5-c]pyridina-3(3,5)-indazola-4(3,5)-pyridina-1(4,1)-triazolacyclononaphane] | 44.1% | –
0.087 µM | 0.001 µM | 0.415 µM | 0.036 µM | O=C1COc2cccc(c2)-c2cncc3[nH]c(nc23)-c2n[nH]c3ccc(cc23)-c2cncc(c2)N1 [Compound 38, (Z)-2^3H,3^1H-8-Oxa-5-aza-2(7,2)-imidazo[4,5-c]pyridina-3(3,5)-indazola-4(3,5)-pyridina-1(1,3)-benzenacyclooctaphan-6-one] | – | –
0.059 µM | 0.01 µM | 0.118 µM | 0.051 µM | Cn1ncc2c1CNCc1cccc(c1)-c1cccc3[nH]c(nc13)-c1n[nH]c3ccc-2cc13 [Compound 15, (Z)-Methyl-1^1H,2^1H,3^1H-6-aza-2(5,3),3 (2,4)-diindazola-1 (4,5)-pyrazola-4(1,3)-benzenacycloheptaphane] | – | –
